Data published in PubChem BioAssay (NCI).
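Test compounds were applied to cells in 96-well plates for 48 hours at 5 doses. TGI denotes the concentration required for complete inhibition of growth.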

Legend:
Assay in all cases: growth of human tumour cells (NCI), 48 h
CAKI-1 renal = test system: CAKI-1 renal
HCT-116 colon = test system: HCT-116 colon
LOX IMVI melanoma = test system: LOX IMVI melanoma
UO-31 renal = test system: UO-31 renal
SK-MEL-2 melanoma = test system: SK-MEL-2 melanoma
KM12 colon = test system: KM12 colon
MDA-MB-435 = test system: MDA-MB-435
EKVX NSCLC = test system: EKVX NSCLC
A549 NSCLC = test system: A549 NSCLC
RXF 393 renal = test system: RXF 393 renal
SN12C renal = test system: SN12C renal
RPMI-8226 leukemia = test system: RPMI-8226 leukemia
OVCAR-4 ovarian = test system: OVCAR-4 ovarian
CCRF-CEM leukemia = test system: CCRF-CEM leukemia
BT-549 breast = test system: BT-549 breast
NCI-H23 lung = test system: NCI-H23 lung
HOP-62 NSCLC = test system: HOP-62 NSCLC
SNB-75 CNS = test system: SNB-75 CNS
SF-295 CNS = test system: SF-295 CNS
NCI-H460 lung = test system: NCI-H460 lung

SMILES	TGI (CAKI-1 renal) [µM]	TGI (HCT-116 colon) [µM]	TGI (LOX IMVI melanoma) [µM]	TGI (UO-31 renal) [µM]	TGI (SK-MEL-2 melanoma) [µM]	TGI (KM12 colon) [µM]	TGI (MDA-MB-435) [µM]	TGI (EKVX NSCLC) [µM]	TGI (A549 NSCLC) [µM]	TGI (RXF 393 renal) [µM]	TGI (SN12C renal) [µM]	TGI (RPMI-8226 leukemia) [µM]	TGI (OVCAR-4 ovarian) [µM]	TGI (CCRF-CEM leukemia) [µM]	TGI (BT-549 breast) [µM]	TGI (NCI-H23 lung) [µM]	TGI (HOP-62 NSCLC) [µM]	TGI (SNB-75 CNS) [µM]	TGI (SF-295 CNS) [µM]	TGI (NCI-H460 lung) [µM]
C/C(=N\n1c(Cc2ccccc2)n[nH]c1=O)c1ccccc1	> 100	> 100	> 100	> 100	> 100	> 100	> 100	> 100	> 100	> 100	> 100	> 100	> 100	> 100	> 100	> 100	–	–	–	–
C1CSCCSCCSCCSC1	> 100	> 100	> 100	> 100	> 100	> 100	> 100	> 100	> 100	> 100	> 100	> 100	> 100	–	> 100	> 100	> 100	> 100	> 100	> 100
CSC1=Nc2ccccc2-c2nc3ccccc3cc2C1	> 100	> 100	> 100	> 100	> 100	> 100	> 100	> 100	> 100	> 100	> 100	–	> 100	> 100	> 100	> 100	> 100	–	> 100	> 100
COc1ccc2nccc(SCC(=O)O)c2c1	> 100	> 100	> 100	> 100	> 100	> 100	> 100	> 100	> 100	> 100	> 100	> 100	> 100	> 100	> 100	> 100	> 100	–	> 100	> 100
CCN(CC)CCC(=O)c1ccc(C)cc1	–	36.8	> 100	42	–	–	33.6	86.8	> 100	31.1	> 100	–	50.1	31.2	37.6	48.1	> 100	> 100	> 100	> 100
CCO/C=N\c1c(C#N)c(-c2ccc(Cl)cc2)cn1-c1ccc(C)cc1	> 100	> 100	> 100	> 100	> 100	–	> 100	> 100	> 100	> 100	> 100	–	> 100	> 100	> 100	> 100	> 100	> 100	> 100	> 100
CN(C)CCCNc1ccc2c(=O)n(CCN(C)C)c(=O)n3c4ccccc4c(=O)c1c23	0.944	–	0.343	2.08	2.52	1.4	0.885	3.02	10.5	2.58	0.941	0.595	4.35	> 100	0.369	1.19	5.91	7.51	1.69	1.06
Cc1c(CCN2CCOCC2)c(N2CCOCC2)n2c(nc3ccccc32)c1C#N	> 10	> 10	> 10	> 10	–	> 10	> 10	> 10	> 10	> 10	> 10	> 10	> 10	> 10	> 10	> 10	> 10	> 10	> 10	> 10
CN=c1c2c(c3[nH]c4ccccc4c4cnc1c34)NCCC2=O	> 10	> 10	–	> 10	> 10	> 10	> 10	> 10	> 10	> 10	> 10	> 10	> 10	> 10	> 10	> 10	> 10	> 10	> 10	> 10
CCCCCCCCCCCCN1[C@H]2CCC[C@H]2C(O)[C@@H]2CCC[C@@H]21 (stereo not given in full)	> 100	> 100	> 100	–	> 100	> 100	> 100	–	> 100	> 100	> 100	> 100	> 100	> 100	> 100	> 100	> 100	> 100	–	> 100
CC(O)c1cc2c(s1)C(=O)c1ccsc1C2=O (stereo not given)	1.96	2.72	–	0.413	0.264	1.2	0.026	0.551	0.373	0.56	0.238	0.416	0.533	0.781	0.23	0.0304	0.283	0.166	0.18	–
COc1cc(S(=O)(=O)Nc2nc(-c3ccc(N4C(=O)/C(=C/C=C/c5ccccc5)N=C4c4ccccc4)cc3)cs2)ccc1Cl	> 100	> 100	> 100	> 100	> 100	> 100	> 100	–	> 100	> 100	> 100	–	> 100	> 100	94	> 100	> 100	> 100	> 100	> 100
Nc1nc(Cl)c(/C=N\O)c(NCC2(CO)CCC2)n1	> 100	> 100	> 100	> 100	–	18.3	> 100	> 100	> 100	> 100	> 100	> 100	> 100	> 100	> 100	> 100	> 100	> 100	> 100	> 100
